# “Also recorded” adds a separate entry of the source. Read-outs that look alike come from different tables or passages of the source.
# Legend:
# in vivo = conditions: for LD50 at 336 h / LD50 safety limits: rat, in vivo
# Method: In accordance with the invention, flavopereirine is administered orally in the forms of capsules to patients infected with HIV at levels of 1-3 grams per day.
# [1] = Sub-chronic administration toxicity in rats; format: in vivo, male and female Sprague-Dawley rats (OPA); conditions: 530 and 2120 mg/kg/day
# Source text: No lesions of the liver, kidneys, duodenum, myocardia, spleen, thyroid and parathyroid glands, testicles or ovaries were visible by microscope.
# [2] = Penetration of the blood-brain barrier (encephalic content); format: in vivo, male CDI mice; conditions: 10 mg orally
# H-9 cells = assay: Multiplication of non-infected H-9 cells; format: cell-based; conditions: 30 and 60 μg/ml
# MT4 cells = assay: Cellular toxicity in MT4 cells; format: cell-based; conditions: d3, duplicate
# HIV-1 BRE1 (HIV-1Asym.) [3] = assay: HIV P24 production in PBMC, viral inoculum pretreated, isolate BRE1; format: cell-based; conditions: virus pretreated with 30 or 60 μg/ml
# Method: (§1) To test the efficacy of flavopereirine on the infectious capability of HIV-1, two experiments were conducted. […] After 2 hours of incubation, the cells were rinsed twice and cultivated in 1 ml of RPMI 1640 containing 20 IU of IL-2 per ml (Boehringer […], Germany), 2 μg of Polybrene (hexadimethrine bromide) per ml (Sigma, St. Louis, Mo., USA) and 10^-7 IU of goat antiserum acting against human alpha interferon (Janssen, Beerse, Belgium) per ml. Half the culture was changed after 72 hours, and thereafter every 48 hours until the 30th day. […] The surface material of the culture was tested by an immuno-enzymatic (ELISA) assay for the production of antigen P24 (Abbott, Chicago, Ill., USA) and the optical density (OD) of the resulting color was converted into P24 concentration from the slope of a standard nomogram, as described by W. Lu and J. -M. Andrieu, Journal of Virology, 66(1): 334-340 (1992).
# HIV-1 BRE1 (HIV-1Asym.) [4] = assay: HIV P24 production, target PBMC pretreated, isolate BRE1; format: cell-based; conditions: for Post-infection production of HIV P24: PBMC + 30 μg/ml 2 hours
# Method: as §1
# [5] = Cytotoxicity (viability) in blastic PBMC; format: cell-based, human; conditions: human, pha-stimulated pbmc, blastic, read-out: Viability of PBMC after exposure; for viability at 72 h: d3; for viability at 168 h: d7; for viability at 264 h: d11; for viability at 312 h: d13; for viability at 360 h: d15
# Method: (§2) To evaluate the cytotoxicity of flavopereirine in resting PBMC and in blast cells, prewashed fresh and blastic PBMC taken from five randomly-selected,healthy, HIV-negative donors were treated in triplicate with 30 or 60 μg flavopereirine per ml of alcoholic solution for two hours, After washing twice, the cells were placed in culture in cellular culture medium until day 15. The viability of the cells of each group was examined by exclusion coloring with trypan blue and by quantimetric analysis. Cultures of HIV-negative PBMC without flavopereirine (compound H) were used as controls.
# [6] = tested on: PBMC stimulated by PHA (blastic); assay: Cytotoxicity (viability) in blastic PBMC; format: cell-based, human; conditions: 30 or 60 μg/ml
# Method: as §2
# TNF-α = TNF-α production by monocytes of normal donors; format: cell-based, human
# Method: (§3) The effects of flavopereirine on the production of primary (IL-1β and TNF-α) and secondary (IL-6) cytokines by monocytes was also tested. The adhesive monocytes used were taken from the blood of two types of donors:
# Normal donors--voluntary blood donors who attended the blood bank of the Pitie-Salpetriere Hospital, Paris, France; and
# (§4) Product H was not used in these experiments at a rate of more than 20 μg/ml water, since above this rate, net toxicity could have been produced.
# interleukin-6 [7] = assay: IL-6 production by monocytes of normal donors; format: cell-based, human
# Method: as §3
# Normal donors--voluntary blood donors who attended the blood bank of the Pitie-Salpetriere Hospital, Paris, France; and […]
# IL-1β = IL-1β production by monocytes of HIV-positive donors; format: cell-based, human
# Method: as §3
# (§5) HIV-positive donors from medical consultations. These individuals were in the early stages of HIV infection and, at the moment of taking the blood, were not undergoing any treatment. The risk factors involved were intravenous drug abuse for six of the donors, sexual transmission for three and blood transfusion (in Zaire) for one patient. No correlation was found between the risk factors and the results of the experiments.
# (§6) The response of the monocytes taken from the various HIV-positive donors was tested in terms of spontaneous response. The quantities of cells received were low (the donors were not affected by cytapheresy), and the experiments were therefore limited by the number of cells available.
# interleukin-6 [8] = assay: IL-6 production by monocytes of HIV-positive donors; format: cell-based, human
# Method: as §3, §5, §6
# Interleukin-4 was used at the same time as flavopereirine H, since it has been shown prior to these experiments that this cytokine blocks the spontaneous production of interleukin-6 in certain HIV-positive patients.
# In five cases, […] was used for comparison, since this, too, blocks the production of IL-6 in normal monocytes stimulated by LPS.
# [9] = Cytotoxicity in human monocytes; format: cell-based; conditions: human, monocytes
# Method: as §4
# human monocytes = assay: Cytotoxicity in human monocytes; format: cell-based; conditions: four donors
# Method: as §4
smiles,measurement,setting,value
CCc1ccc2c3[nH]c4ccccc4c3cc[n+]2c1 [flavopereirine],LD50 at 336 h,in vivo; ip,2450 mg/kg
same,LD50 safety limits,in vivo; ip,2350 to 2550 mg/kg
same,LD50 at 336 h,in vivo; po,10400 mg/kg
same,LD50 safety limits,in vivo; po,9630 to 11350 mg/kg
same,change in mortality rate,"in vivo; subsequent 14 days, surviving animals",No change in mortality rate
same,alteration in globular blood count,[1],Neither was any alteration in the globular blood count noted
same,alterations in body weight or feeding,[1],no alterations were noted in either body weight or feeding
same,hepatic and renal functions,[1],remained normal
same,"lesions of liver, kidneys, duodenum, myocardia, spleen, thyroid, parathyroid, testicles, ovaries",[1]; microscope,No lesions
same,encephalic flavopereirine concentration,"[2]; 20 g mice, brains 0.5 g",14 µg/g
same,encephalic flavopereirine content,[2]; mice,approximately 7 μg
same,penetration of the blood-brain barrier,[2]; mice,observed to penetrate the blood-brain barrier
same,multiplication of non-infected cells,H-9 cells,does not affect the multiplication of non-infected cells
same,cellular toxicity,"MT4 cells; 100 μg/ml, Table I",cellular toxicity
same,cellular toxicity,"MT4 cells; 100 μg/ml, Table I, listed as H",Tox
same,cellular toxicity,"MT4 cells; 100 μg/ml, Table II",Tox
same,cellular toxicity,"MT4 cells; 400 μg/ml, Table I",cellular toxicity
same,cellular toxicity,"MT4 cells; 400 μg/ml, Table I, listed as H",Tox
same,infection of target PBMC,HIV-1 BRE1 (HIV-1Asym.) [3],completely prevented the infection of target PBMC
same,Post-infection production of HIV P24,HIV-1 BRE1 (HIV-1Asym.) [4]; d3,113 ± 7 pg/mL
same,Post-infection production of HIV P24,HIV-1 BRE1 (HIV-1Asym.) [4]; d5,> 1500 pg/mL
same,inhibition of productive viral infections,HIV-1 BRE1 (HIV-1Asym.) [4]; target PBMC pretreated with 60 μg/ml only,complete inhibition of productive viral infections
same,viability at 72 h,[5]; 30 μg/ml 2 hrs,88 ± 3%
same,viability at 168 h,[5]; 30 μg/ml 2 hrs,35 ± 7%
same,viability at 264 h,[5]; 30 μg/ml 2 hrs,71 ± 3%
same,viability at 312 h,[5]; 30 μg/ml 2 hrs,76 ± 9%
same,viability at 360 h,[5]; 30 μg/ml 2 hrs,69 ± 8%
same,viability at 72 h,[5]; 60 μg/ml 2 hrs,79 ± 4%
same,viability at 168 h,[5]; 60 μg/ml 2 hrs,74 ± 5%
same,viability at 264 h,[5]; 60 μg/ml 2 hrs,70 ± 4%
same,viability at 312 h,[5]; 60 μg/ml 2 hrs,71 ± 8%
same,viability at 360 h,[5]; 60 μg/ml 2 hrs,63 ± 7%
same,viability of blastic cells,[6],appeared to be independent of exposure to compound H
same,direct activity on production of TNF-α,"TNF-α; donor 7, one dose only",Increase in the production of TNF-α
same,indirect activity on production of TNF-α,"TNF-α; stimulated monocytes, heavy dosage only (20 βg/ml as printed), p<0.05",sharp reduction in production
same,activity on cytokine production,"interleukin-6 [7]; doses of less than 5 μg/ml, first two normal donors, cytokine not specified",inactive
same,direct activity on production of interleukin-6,interleukin-6 [7]; normal donors,No modification in response was observed
same,indirect activity on production of IL-6,"interleukin-6 [7]; stimulated monocytes, dose-dependent, never total, P<0.05",sharp reduction in the production of IL-6
same,direct activity on base production of IL-1β,IL-1β; HIV-positive donors,No modification on the base production was observed
same,indirect activity on production of interleukin-1,"IL-1β; three dosages, p<0.05",absence of any impact on the production of interleukin-1
same,effect on spontaneous production of IL-6,"interleukin-6 [8]; alone, dosage effect, never total, p<0.05, listed as Product H",inhibitory effect with a very clear dosage effect; also recorded: inhibited the spontaneous production of IL-6 shown in some HIV-positive patients
same,effect on spontaneous production of IL-6 with interleukin-4,"interleukin-6 [8]; in presence of interleukin-4, listed as product H",an amplification effect was almost always obtained
same,concentration for total disappearance of IL-6 production,"interleukin-6 [8]; with interleukin-4, almost always (except case #4), p<0.05",3 µg/mL
same,concentration for total disappearance of IL-6 production (often),"interleukin-6 [8]; with interleukin-4, often, p<0.05",1 µg/mL
same,cytotoxicity,"[9]; 30 μg/ml, four donors",> 40%
same,MCC,"[9]; healthy and asymptomatic HIV-positive donors, read-out: toxic dosage on human monocytes in vitro",> 20 µg/mL
same,cytotoxicity,"human monocytes; 30, 50, 100 μg/ml",virtually total cytotoxicity
same,cytotoxicity,human monocytes; above 30 μg/ml,100 µg/mL

# Reference: patent US5519028A, “Antiviral preparations” (priority 1992, dated 1996)
